Reference: US20160129080A1, “TREATMENT OF POLYPOIDAL CHROIDAL VASCULOPATHY” (priority 2013, published 2016)

B1: ranibizumab (antibody, chains of the INN, looked up, V domains shown)
VH: EVQLVESGGGLVQPGGSLRLSCAASGYDFTHYGMNWVRQAPGKGLEWVGWINTYTGEPTYAADFKRRFTFSLDTSKSTAYLQMNSLRAEDTAVYYCAKYPYYYGTSHWYFDVWGQGTLVTVSS
VL: DIQLTQSPSSLSASVGDRVTITCSASQDISNYLNWYQQKPGKAPKVLIYFTSSLHSGVPSRFSGSGSGTDFTLTISSLQPEDFATYYCQQYSTVPWTFGQGTKVEIK
modifications: Fab
notes: anti-VEGF antibody antagonist approved for human use

Legend:
[1] = Indocyanine green angiography-assessed complete regression of polyps, randomized three-group patient study; type: in vivo, human; conditions: month 6, 61 patients randomized to three groups, ranibizumab 0.5 mg intravitreal
Protocol: (§1) Sixty-one patients were randomized to three treatment groups: verteporfin photodynamic therapy, ranibizumab 0.5 mg, or the combination. Patients were administered with verteporfin photodynamic therapy/placebo and initiated with three consecutive monthly intravitreal ranibizumab/sham injections starting from day 1 (first photodynamic therapy session). Indocyanine green angiography was performed at baseline and at months 3, 4, 5, and 6. Fluorescein angiography was performed to assess the presence of leakage and to obtain fundus photographs at the same times. Changes in central retinal thickness were determined by optical coherence tomography. Treatment with ranibizumab/sham injections was repeated at months 3-5 on an as-needed basis.
(§2) The primary endpoint was the proportion of patients with indocyanine green angiography-assessed complete regression of polyps at month 6. Secondary endpoints included mean change in best corrected visual acuity at month 6 and safety.

[2] = Best corrected visual acuity change, randomized three-group patient study; type: in vivo, human; conditions: month 6; mean±SD; ranibizumab 0.5 mg intravitreal
Protocol: as §1, §2

| Molecule | proportion of patients with complete polyp regression [1] | Mean change±standard deviation in best corrected visual acuity [2] |
| --- | --- | --- |
| verteporfin | 71.4% | 7.5±10.6 letters |
| B1 | 28.6% | 9.2±12.4 letters |
